Laboratory results taken from patent US10299478B2, “Pyrazolyltriazolylpyridines as pesticides” (BAYER ANIMAL HEALTH GMBH, priority 2014, dated 2019).

Tests used:
Format in all cases: in vivo
[1] = system: cattle ticks (Boophilus microplus) Parkhurst strain, SP-resistant; assay: Boophilus microplus dip test; settings: application rate 100 ppm, assessed after 7 days
Method: Boophilus microplus-Dip Test
• Test animals: cattle ticks (Boophilus microplus) Parkhurst strain, SP-resistant • Solvent: dimethyl sulphoxide
10 mg of active ingredient are dissolved in 0.5 ml of dimethyl sulphoxide. For the purpose of producing a suitable formulation, the active compound solution is diluted with water to the concentration desired in each case.
This active ingredient formulation is pipetted into tubes. 8-10 engorged adult female cattle ticks (Boophilus microplus) are transferred into a further tube with holes. The tube is immersed into the active compound preparation, and all the ticks are completely wetted. After the liquid has run out, the ticks are transferred on filter discs into plastic dishes and stored in a climate-controlled room.
(§1) Efficacy is assessed after 7 days by laying of fertile eggs. Eggs which are not visibly fertile are stored in a climate-controlled cabinet until the larvae hatch after about 42 days. An efficacy of 100% means that none of the ticks has laid any fertile eggs; 0% means that all the eggs are fertile.

[2] = system: adult houseflies (Musca domestica); assay: Musca domestica test; settings: application rate 100 ppm; sponge with sugar solution; after 2 days
Method: (§2) • Solvent: dimethyl sulphoxide
(§3) To produce an appropriate active ingredient formulation, 10 mg of active ingredient are mixed with 0.5 ml of dimethyl sulphoxide, and the concentrate is diluted with water to the desired concentration.
Vessels containing a sponge treated with sugar solution and the active ingredient formulation of the desired concentration are populated with 10 adult houseflies (Musca domestica).
After 2 days, the kill in % is determined. 100% means that all of the flies have been killed; 0% means that none of the flies have been killed.

[3] = system: adult dog ticks (Rhipicephalus sanguineus); assay: Rhipicephalus sanguineus in vitro contact test with adult brown dog ticks; settings: coated test tube, after 48 h
Method: Rhipicephalus sanguineus-In Vitro Contact Tests with Adult Brown Dog Ticks
(§4) For the coating of the test tubes, 9 mg of active compound are first dissolved in 1 ml of acetone p.a. and then diluted to the desired concentration with acetone p.a. 250 μl of the solution are distributed homogeneously on the inner walls and the base of a 25 ml test tube by turning and rocking on an orbital shaker (rocking rotation at 30 rpm for 2 h). With 900 ppm active compound solution and internal surface 44.7 cm^2, given homogeneous distribution, an area-based dose of 5 μg/cm^2 is achieved.
After the solvent has evaporated off, the tubes are populated with 5-10 adult dog ticks (Rhipicephalus sanguineus), sealed with a perforated plastic lid and incubated in a horizontal position in the dark at room temperature and ambient humidity. After 48 h, efficacy is determined. To this end, the ticks are knocked to the floor of the tube and incubated on a hotplate at 45-50° C. for not more than 5 min. Ticks which remain motionless on the floor or move in such an uncoordinated manner that they are unable to deliberately avoid the heat by climbing upwards are considered to be dead or moribund.
An efficacy of 100% means that all the ticks were dead or moribund. 0% efficacy means that none of the ticks had been harmed.

[4] = system: green peach aphid (Myzus persicae); assay: Myzus persicae spray test; settings: application rate 100 g/ha; Chinese cabbage leaf discs sprayed; after 6 days
Method: Myzus persicae-Spray Test
• Solvent: 78 parts by weight of acetone • 1.5 parts by weight of dimethylformamide • Emulsifier: alkylaryl polyglycol ether
(§5) To produce an appropriate active ingredient formulation, 1 part by weight of active ingredient is dissolved using the specified parts by weight of solvent and made up with water containing an emulsifier concentration of 1000 ppm until the desired concentration is attained. To produce further test concentrations, the preparation is diluted with emulsifier-containing water.
Discs of Chinese cabbage leaves (Brassica pekinensis) infested by all stages of the green peach aphid (Myzus persicae) are sprayed with an active compound preparation of the desired concentration.
After 6 days, efficacy in % is determined. 100% means that all the aphids have been killed; 0% means that no aphids have been killed.

[5] = system: Tick nymphs (Amblyomma hebraeum); assay: Amblyomma hebaraeum test; settings: application rate 100 ppm; nymphs immersed for one minute; after 42 days
Method: as §2, §3
Tick nymphs (Amblyomma hebraeum) are placed into perforated plastic beakers and immersed in the desired concentration for one minute. The ticks are transferred on filter paper into a Petri dish and stored in a climate-controlled cabinet.
After 42 days, the kill in % is determined. 100% means that all of the ticks have been killed; 0% means that none of the ticks have been killed.

[6] = system: engorged adult female cattle ticks (Boophilus microplus); assay: Boophilus microplus injection test; settings: application rate 20 μg/animal; injection into the abdomen; assessed after 7 days
Method: Boophilus microplus-Injection Test
as §2
To produce an appropriate active ingredient formulation, 10 mg of active ingredient are mixed with 0.5 ml of solvent and the concentrate is diluted with solvent to the desired concentration.
1 μl of the active ingredient solution is injected into the abdomen of 5 engorged adult female cattle ticks (Boophilus microplus). The animals are transferred into dishes and kept in a climate-controlled room.
as §1

[7] = system: caterpillars of the armyworm (Spodoptera frugiperda); assay: Spodoptera frugiperda spray test; settings: application rate 100 g/ha; maize leaf discs sprayed; after 7 days
Method: Spodoptera frugiperda-Spray Test
(§6) • Solvent: 78.0 parts by weight of acetone • 1.5 parts by weight of dimethylformamide • Emulsifier: alkylaryl polyglycol ether
as §5
Leaf discs of maize (Zea mays) are sprayed with an active ingredient formulation of the desired concentration and, after drying, populated with caterpillars of the armyworm (Spodoptera frugiperda).
After 7 days, efficacy in % is determined. 100% means that all the caterpillars have been killed; 0% means that no caterpillars have been killed.

[8] = system: L1 larvae of the Australian sheep blowfly (Lucilia cuprina); assay: Lucilia cuprina test; settings: application rate 100 ppm; minced horsemeat; after 2 days
Method: as §2, §3
About 20 L1 larvae of the Australian sheep blowfly (Lucilia cuprina) are transferred into a test vessel containing minced horsemeat and the active ingredient preparation of the desired concentration.
After 2 days, the kill in % is determined. 100% means that all the larvae have been killed; 0% means that no larvae have been killed.

[9] = system: unfed adult cat fleas (Ctenocephalides felis); assay: Ctenocephalides felis oral test; settings: application rate 100 ppm, in citrated cattle blood, after 2 days
Method: Ctenocephalides felis-Oral Test
as §2
To produce a suitable preparation of active compound, 10 mg of active compound are mixed with 0.5 ml of dimethyl sulphoxide. Dilution with citrated cattle blood gives the desired concentration.
About 20 unfed adult cat fleas (Ctenocephalides felis) are placed into a chamber which is closed at the top and bottom with gauze. A metal cylinder whose bottom end is closed with parafilm is placed onto the chamber. The cylinder contains the blood/active compound preparation, which can be imbibed by the fleas through the parafilm membrane.
After 2 days, the kill in % is determined. 100% means that all of the fleas have been killed; 0% means that none of the fleas have been killed.

[10] = system: larvae of the mustard beetle (Phaedon cochleariae); assay: Phaedon cochleariae spray test; settings: application rate 100 g/ha; Chinese cabbage leaf discs sprayed; after 7 days
Method: Phaedon cochleariae-Spray Test
as §6, §5
Discs of Chinese cabbage leaves (Brassica pekinensis) are sprayed with an active ingredient formulation of the desired concentration and, after drying, populated with larvae of the mustard beetle (Phaedon cochleariae).
After 7 days, efficacy in % is determined. 100% means that all the beetle larvae have been killed; 0% means that no beetle larvae have been killed.

[11] = system: greenhouse red spider mite (Tetranychus urticae); assay: Tetranychus urticae spray test, OP-resistant; settings: application rate 100 g/ha; bean leaf discs sprayed; after 6 days
Method: Tetranychus urticae-Spray Test, OP-Resistant
as §6, §5
Discs of bean leaves (Phaseolus vulgaris) infested by all stages of the greenhouse red spider mite (Tetranychus urticae) are sprayed with an active ingredient formulation of the desired concentration.
After 6 days, efficacy in % is determined. 100% means that all the spider mites have been killed; 0% means that no spider mites have been killed.

[12] = system: adult cat fleas (Ctenocephalides felis); assay: Ctenocephalides felis in vitro contact test with adult cat fleas; settings: application rate 500 g/ha; coated test tube; after 48 h
Method: Ctenocephalides felis—In Vitro Contact Tests with Adult Cat Fleas
as §4, with “[…]” for “μg/cm^2”
After the solvent has evaporated off, the tubes are populated with 5-10 adult cat fleas (Ctenocephalides felis), sealed with a perforated plastic lid and incubated in a horizontal position at room temperature and ambient humidity. After 48 h, efficacy is determined. To this end, the test tubes are stood upright and the fleas are knocked to the base of the tube. Fleas which remain motionless at the base or move in an uncoordinated manner are considered to be dead or moribund.
100% efficacy means that all the fleas were dead or moribund. 0% efficacy means that no fleas were harmed.

[13] = system: southern root-knot nematode (Meloidogyne incognita); assay: Meloidogyne incognita test; settings: application rate 20 ppm; lettuce in sand; after 14 days
Method: Meloidogyne incognita Test
• Solvent: 125.0 parts by weight of acetone
To produce an appropriate active ingredient formulation, 1 part by weight of active ingredient is mixed with the stated amount of solvent and the concentrate is diluted with water to the desired concentration.
Vessels are filled with sand, active ingredient solution, an egg/larvae suspension of the southern root-knot nematode (Meloidogyne incognita) and lettuce seeds. The lettuce seeds germinate and the plants develop. The galls develop on the roots.
After 14 days, the nematicidal efficacy in % is determined by the formation of galls. 100% means that no galls were found; 0% means that the number of galls on the treated plants corresponds to the untreated control.

Structure (SMILES) | efficacy (laying of fertile eggs) [1] | efficacy (kill of flies) [2] | efficacy (ticks dead or moribund) ([3]; application rate 100 g/ha) | efficacy (aphids killed) [4] | efficacy (kill of ticks) [5] | efficacy (laying of fertile eggs) [6] | efficacy (caterpillars killed) [7] | efficacy (kill of larvae) [8] | efficacy (kill of fleas) [9] | efficacy (beetle larvae killed) [10] | efficacy (spider mites killed) [11] | efficacy (fleas dead or moribund) [12] | nematicidal efficacy (formation of galls) [13] | efficacy (ticks dead or moribund) ([3]; application rate 20 g/ha)
Cn1nc(C(F)(F)C(F)(F)F)c(C(F)(F)F)c1-n1cc(-c2cnc(Cl)c(C(=O)NC3CC3)c2)nn1 [Ia-2, 2-Chloro-N-cyclopropyl-5-[1-[2-methyl-5-(1,1,2,2,2-pentafluoroethyl)-4-(trifluoromethyl)pyrazol-3-yl]triazol-4-yl]pyridine-3-carboxamide] | 100% | 100% | 100% | 90% | 100% | 100% | 100% | 100% | 100% | 100% | 100% |  |  | 
Cc1ncc(-c2cn(-c3c(C(F)(F)F)c(C(F)(F)C(F)(F)F)nn3C)nn2)cc1C(=O)NC1CC1 [Ia-4] | 100% | 100% | 100% | 90% | 100% | 100% | 100% | 100% | 100% | 100% | 100% | 100% | 90% | 
Cc1ncc(-c2cn(-c3c(C(F)(F)F)c(C(F)(F)C(F)(F)F)nn3C)nn2)cc1C(=O)NC1(C#N)CC1 [Ia-3] |  | 80% | 100% | 100% |  | 100% |  | 95% | 100% | 100% | 100% | 100% |  | 
COc1ncc(-c2cn(-c3c(C(F)(F)F)c(C(F)(F)C(F)(F)F)nn3C)nn2)cc1C(=O)NC1(C#N)CC1 [Ia-5] |  | 100% | 100% |  |  | 100% | 100% | 100% | 100% | 100% |  |  |  | 
COc1ncc(-c2cn(-c3c(C(F)(F)F)c(C(F)(F)C(F)(F)F)nn3C)nn2)cc1C(=O)NC1CC1 [Ia-6] |  | 100% |  |  |  | 100% |  | 100% | 100% | 100% |  |  |  | 80%
Cn1nc(C(F)(F)C(F)(F)F)c(C(F)(F)F)c1-n1cc(-c2cnc(Cl)c(C(=O)NC3(C#N)CC3)c2)nn1 [Ia-1] | 100% |  | 100% |  | 100% | 100% |  |  | 100% | 100% | 90% |  |  | 
